What was measured:
SMN protein = SMN protein assay (Mesoscale Discovery) in SMA patient fibroblasts (GM03813); assay type: cell-based, human; conditions: 48 hours, MSD assay, read-out: SMN EC50 (SMN Protein Potency)
Protocol: Compounds were tested on spinal muscular atrophy (SMA) patient fibroblasts (GM03813, Coriell) at doses ranging from 2.5 μM to 0.6 nM. 7000 cells/well were seeded in 96-well plates. Compounds were incubated for 48 hours and the cells were lysed with 100 μL of lysis buffer. 20 μL of lysate was used for SMN protein measurement by Mesoscale Discovery (MSD) assay developed by PharmOptima (Michigan). A standard curve prepared with SMN protein ranging from 1 μg/ml to 19.5 pg/ml was used in each MSD plate to calculate the absolute SMN protein amount in each sample.

[1] = test system: MDR1-MDCK cell monolayers; assay: MDCK-MDR1 permeability assay for blood-brain-barrier penetration potential (Papp, efflux ratio); assay type: in vitro ADME; conditions: 5 μM; for MDCK-MDR1: % Recov A-B: apical to basolateral; for MDCK-MDR1: % Recov A-B / MDCK-MDR1: % Recov B-A: 120 minutes, pH 7.4; for MDCK-MDR1: % Recov B-A: basolateral to apical
Protocol: (§1) The dosing solution concentration was 5 μM of test article in the assay buffer. […] Each determination was performed in duplicate. […] All samples were assayed by LC-MS/MS using electrospray ionization. Analytical conditions are outlined below.
(§2) The apparent permeability (Papp) and percent recovery were calculated as follows: […]

MDR1 = assay: as above; assay type: in vitro ADME; conditions: dog; for Papp A→B at 120 min, 5 μM: MDCK-MDR1, apical to basolateral; for Papp A→B at 120 min, 5 μM / Papp B→A at 120 min, 5 μM: pH 7.4; for Papp B→A at 120 min, 5 μM: MDCK-MDR1, basolateral to apical; for efflux ratio at 120 min, 5 μM: MDCK-MDR1, pH 7.4, Efflux ratio = Papp (B-to-A)/Papp (A-to-B)
Protocol: as §1, §2

SMN = assay: Quantitative splicing assay (SMN) in SMA patient fibroblasts (GM03813), qPCR of SMN FL and SMN Δ7; assay type: cell-based; conditions: Homo sapiens, Fibroblast, 24 h, SMN FL mRNA by qPCR
Protocol: Spinal muscular atrophy (SMA) patient fibroblasts (GM03813, Coriell) were plated in 96-well plates at 50,000 cells/well. Immediately after plating, cells were dosed with compounds for 24 h at concentrations ranging from 2.5 μM to 0.6 nM (0.1% DMSO). Treated cells were lysed and cDNA synthesized using the Fast Advanced Cells-to-Ct kit (ThermoFisher A35378) according to the manufacturer's instructions. 2 μL of each cDNA were used in qPCR reactions. The qPCR reactions were prepared in 384-well plates in 10 μL volume, using TaqMan™ Fast Advanced Master Mix (ThermoFisher; 4444965) with primers and probes shown in the table below. Reactions were run in a Quant Studio 6 qPCR instrument with default settings.

Compound | EC50 (SMN protein) [nM] | MDCK-MDR1: % Recov A-B [1] [%] | MDCK-MDR1: % Recov B-A [1] [%] | Papp A→B at 120 min, 5 μM (MDR1) [×10⁻⁶ cm/s] | Papp B→A at 120 min, 5 μM (MDR1) [×10⁻⁶ cm/s] | efflux ratio at 120 min, 5 μM (MDR1) | EC50 (SMN) [nM] | MDCK-MDR1: Efflux ([1]; Efflux ratio = Papp (B-to-A)/Papp (A-to-B))
Cn1cc(-c2ccc(-c3ncc(O[C@@H]4C[C@H]5CCC[C@H](N5)[C@@H]4F)nn3)c(O)c2)cn1 (single isomer, unassigned) [Compound 5A] | 500 to 10000 | 69 | 79 | 9 | 30.9 | 3 | – | –
CN(c1cnc(-c2ccc(-c3ccn(C)c(=O)c3)cc2O)nn1)[C@H]1C[C@@H]2CC[C@@H](N2)[C@H]1F (single isomer, unassigned) [Compound 1B] | 500 to 10000 | 95 | 84 | 0.3 | 46.4 | 152 | – | –
Cn1cc(-c2ccc(-c3ncc(O[C@H]4C[C@@H]5CCC[C@@H](N5)[C@H]4F)nn3)c(O)c2)cn1 (single isomer, unassigned) [Compound 5B] | 100 to 500 | 83 | 90 | 10.2 | 43.7 | 4 | – | –
CN(c1cnc(-c2ccc(-c3cnn(C)c3)cc2O)nn1)[C@H]1C[C@@H]2CC[C@@H](N2)[C@H]1F (single isomer, unassigned) [Compound 3B] | 0.01 to 15 | 62 | 76 | 4.3 | 37.8 | 9 | 0.01 to 15 | –
CN(C)C(=O)c1cc2cc(O)c(-c3ncc(N(C)[C@@H]4C[C@H]5CC[C@H](N5)[C@@H]4F)nn3)cc2o1 (single isomer, unassigned) [Compound 4A] | – | 89 | 96 | – | – | – | – | 26
CN(c1cnc(-c2ccc(-c3cn[nH]c3)cc2O)nn1)[C@@H]1C[C@H]2CC[C@H](N2)[C@@H]1F (single isomer, unassigned) [Compound 2A] | 500 to 10000 | 78 | 74 | 2.05 | 39.8 | 19 | – | –
CN(c1cnc(-c2ccc(-c3ccn(C)c(=O)c3)cc2O)nn1)[C@@H]1C[C@H]2CC[C@H](N2)[C@@H]1F (single isomer, unassigned) [Compound 1A] | 500 to 10000 | 81 | 94 | 0.12 | 37.8 | 309 | – | –
CN(c1cnc(-c2ccc(-c3cn[nH]c3)cc2O)nn1)[C@H]1C[C@@H]2CC[C@@H](N2)[C@H]1F (single isomer, unassigned) [Compound 2B] | 0.01 to 15 | 93 | 96 | 2.26 | 53.4 | 24 | 0.01 to 15 | –
CN(c1cnc(-c2ccc(-c3cnn(C)c3)cc2O)nn1)[C@@H]1C[C@H]2CC[C@H](N2)[C@@H]1F (single isomer, unassigned) [Compound 3A] | 15 to 50 | 67 | 72 | 5.37 | 37.3 | 7 | 0.01 to 15 | –
CN(C)C(=O)c1cc2cc(O)c(-c3ncc(N(C)[C@H]4C[C@@H]5CC[C@@H](N5)[C@H]4F)nn3)cc2o1 (single isomer, unassigned) [Compound 4B] | – | 91 | 101 | 3.05 | 50 | 16 | – | –

From patent US11845744B2, “Methods and compositions for modulating splicing” (Skyhawk Therapeutics, Inc., priority 2019, dated 2023)
